The EC50 is the concentration at which the effect is half-maximal.

The target in one experiment is T1, CFTR G551D mutant (Homo sapiens, UniProt P13569, G551D).
T1 construct: expressed in transfected cells; host or cells: HEK293 cells, reverse transfection with plasmids
As to the kind of experiment: YFP-halide influx assay for the CFTR-G551D mutation (HEK293 cells). The class given is cell-based. The following applies: forskolin 10.67 μM. The essentials:
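HEK293 cells reverse-transfected with CFTR G551D and halide-sensitive YFP (H148Q/I152L/F47L), expressed 24 h at 37 °C. YFP fluorescence quenching recorded for 7 s after I⁻ injection. Response = 1−F/F0; EC50 derived from 1−F/F0 vs compound concentration.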

A further experiment deals with T2, CFTR ΔF508 mutant (Homo sapiens, UniProt P13569, DEL508-508).
T2 construct: expressed in transfected cells; host or cells: CFBE41o- cells, adenoviral transduction
T2 sequence (P13569 with tags, fused parts or gaps DEL508-508): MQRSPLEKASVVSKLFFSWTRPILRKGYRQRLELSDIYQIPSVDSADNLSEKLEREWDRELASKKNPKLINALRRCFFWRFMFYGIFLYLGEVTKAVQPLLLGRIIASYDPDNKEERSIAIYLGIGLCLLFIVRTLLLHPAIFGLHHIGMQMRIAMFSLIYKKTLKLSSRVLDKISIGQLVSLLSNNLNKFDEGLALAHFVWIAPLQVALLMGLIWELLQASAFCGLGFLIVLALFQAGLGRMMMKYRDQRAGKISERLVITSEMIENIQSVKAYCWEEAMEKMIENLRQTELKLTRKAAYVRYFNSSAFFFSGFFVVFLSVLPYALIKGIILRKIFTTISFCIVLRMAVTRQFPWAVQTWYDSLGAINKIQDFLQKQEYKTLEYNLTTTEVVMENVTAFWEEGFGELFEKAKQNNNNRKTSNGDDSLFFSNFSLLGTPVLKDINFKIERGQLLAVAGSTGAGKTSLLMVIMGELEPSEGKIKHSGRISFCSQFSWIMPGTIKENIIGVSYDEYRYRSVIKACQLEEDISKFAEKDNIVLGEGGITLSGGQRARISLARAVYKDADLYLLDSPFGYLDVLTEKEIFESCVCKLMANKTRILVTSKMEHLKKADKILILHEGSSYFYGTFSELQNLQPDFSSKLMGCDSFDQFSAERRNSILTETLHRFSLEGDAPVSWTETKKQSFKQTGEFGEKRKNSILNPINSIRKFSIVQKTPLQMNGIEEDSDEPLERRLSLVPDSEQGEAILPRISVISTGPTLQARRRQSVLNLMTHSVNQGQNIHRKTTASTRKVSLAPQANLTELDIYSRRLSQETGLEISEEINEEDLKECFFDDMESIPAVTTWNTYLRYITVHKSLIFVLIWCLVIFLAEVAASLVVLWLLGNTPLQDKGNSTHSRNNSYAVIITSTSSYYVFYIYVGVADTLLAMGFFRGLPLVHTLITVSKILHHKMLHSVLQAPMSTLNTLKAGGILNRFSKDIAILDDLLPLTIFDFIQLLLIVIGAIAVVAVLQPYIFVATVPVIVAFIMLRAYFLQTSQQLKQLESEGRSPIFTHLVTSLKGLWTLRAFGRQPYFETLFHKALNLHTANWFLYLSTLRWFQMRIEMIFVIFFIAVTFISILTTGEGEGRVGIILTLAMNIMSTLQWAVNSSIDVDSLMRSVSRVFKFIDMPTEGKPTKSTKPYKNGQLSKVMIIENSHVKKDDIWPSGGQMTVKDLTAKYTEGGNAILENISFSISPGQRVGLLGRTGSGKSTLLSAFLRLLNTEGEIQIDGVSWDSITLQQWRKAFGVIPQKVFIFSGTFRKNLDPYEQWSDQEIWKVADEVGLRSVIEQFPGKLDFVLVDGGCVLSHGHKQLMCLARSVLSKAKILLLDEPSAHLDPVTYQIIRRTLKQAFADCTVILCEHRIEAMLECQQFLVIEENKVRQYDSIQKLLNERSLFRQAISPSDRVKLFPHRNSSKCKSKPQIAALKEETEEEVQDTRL
Kind of experiment: YFP-halide influx assay for the CFTR-ΔF508 mutation (CFBE41o- cells). The class given is cell-based. The following applies: forskolin 10.67 μM; for EC50: from (1−F/F0) vs concentration plot. The essentials:
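CFBE41o- cells transduced with adenovirus expressing CFTR ΔF508 and halide-sensitive YFP H148Q/I152L/F47L, then held 24 h at 27° C or with a CFTR modulator 24 h at 37° C. Iodide-induced quench recorded 2 min; EC50 from (1−F/F0) at 36 s versus concentration.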

T1 sequence (P13569 whole entry G551D): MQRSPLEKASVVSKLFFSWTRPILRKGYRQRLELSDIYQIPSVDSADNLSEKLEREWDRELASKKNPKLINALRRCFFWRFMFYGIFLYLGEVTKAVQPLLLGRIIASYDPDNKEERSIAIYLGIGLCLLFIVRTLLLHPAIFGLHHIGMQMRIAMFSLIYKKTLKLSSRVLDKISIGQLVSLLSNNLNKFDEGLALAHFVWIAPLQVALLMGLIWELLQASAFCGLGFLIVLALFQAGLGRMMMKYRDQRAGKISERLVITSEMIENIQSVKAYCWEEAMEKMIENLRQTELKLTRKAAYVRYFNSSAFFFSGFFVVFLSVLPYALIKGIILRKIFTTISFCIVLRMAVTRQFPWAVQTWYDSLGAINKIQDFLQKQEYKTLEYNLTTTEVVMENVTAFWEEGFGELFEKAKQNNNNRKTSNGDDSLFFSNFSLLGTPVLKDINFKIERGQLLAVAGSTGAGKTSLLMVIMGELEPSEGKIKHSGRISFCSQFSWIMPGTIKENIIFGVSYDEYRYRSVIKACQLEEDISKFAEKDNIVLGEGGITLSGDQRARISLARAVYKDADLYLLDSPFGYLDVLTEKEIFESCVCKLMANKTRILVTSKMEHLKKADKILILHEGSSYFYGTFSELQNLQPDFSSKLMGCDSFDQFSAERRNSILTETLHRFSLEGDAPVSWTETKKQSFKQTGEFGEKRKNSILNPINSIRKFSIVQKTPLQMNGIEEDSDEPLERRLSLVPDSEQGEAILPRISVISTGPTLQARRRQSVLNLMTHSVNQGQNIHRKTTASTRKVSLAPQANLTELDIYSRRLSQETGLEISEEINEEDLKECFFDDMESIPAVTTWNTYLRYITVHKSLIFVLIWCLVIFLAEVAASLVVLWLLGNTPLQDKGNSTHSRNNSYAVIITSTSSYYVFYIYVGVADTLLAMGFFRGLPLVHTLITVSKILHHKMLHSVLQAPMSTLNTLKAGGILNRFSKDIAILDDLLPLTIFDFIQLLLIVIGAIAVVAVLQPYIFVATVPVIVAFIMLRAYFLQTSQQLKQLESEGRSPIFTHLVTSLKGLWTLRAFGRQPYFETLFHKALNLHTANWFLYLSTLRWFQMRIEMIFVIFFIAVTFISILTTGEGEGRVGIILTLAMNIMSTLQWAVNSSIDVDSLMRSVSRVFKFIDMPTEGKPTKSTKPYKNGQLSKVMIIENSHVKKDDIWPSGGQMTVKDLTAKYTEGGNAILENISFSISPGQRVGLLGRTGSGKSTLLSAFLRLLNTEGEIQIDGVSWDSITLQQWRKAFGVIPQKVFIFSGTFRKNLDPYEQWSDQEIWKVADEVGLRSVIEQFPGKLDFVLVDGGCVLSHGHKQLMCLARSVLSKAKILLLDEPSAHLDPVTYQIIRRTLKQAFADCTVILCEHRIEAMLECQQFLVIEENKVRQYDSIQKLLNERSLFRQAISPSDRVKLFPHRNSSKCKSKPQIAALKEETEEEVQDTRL

For `CC(C)(CO)NC(=O)c1ncc(S(=O)(=O)c2ccc(C(F)(F)F)cc2)cc1N` [Compound 227, 3-amino-N-(1-hydroxy-2-methylpropan-2-yl)-5-{[4-(trifluoromethyl)phenyl]sulfonyl}pyridine-2-carboxamide], the “% Activation” value turned out to be 28.1% on CFTR G551D mutant and 81.0% on CFTR ΔF508 mutant. For the same compound, the EC50 at CFTR G551D mutant is > 10000 nM; at CFTR ΔF508 mutant, > 667 nM.

As for `Nc1cc(S(=O)(=O)c2ccc(OC(F)(F)F)cc2)cnc1C(=O)NCC1(O)CCOCC1` [Compound 29, 3-amino-N-[(4-hydroxytetrahydro-2H-pyran-4-yl)methyl]-5-{[4-(trifluoromethoxy)phenyl]sulfonyl}pyridine-2-carboxamide], on CFTR G551D mutant, the “% Activation” value was 58.7% and the EC50 was 1500 nM. Further, at CFTR ΔF508 mutant, the “% Activation” value was 94.1% and the concentration for a half-maximal effect (EC50) is 54.6 nM.

In the case of `CC(C)NC(=O)CNC(=O)c1ncc(S(=O)(=O)c2ccc(C(F)(F)F)cc2)cc1N` [Compound 104, 3-amino-N-[2-oxo-2-(propan-2-ylamino)ethyl]-5-{[4-(trifluoromethyl)phenyl]sulfonyl}pyridine-2-carboxamide], the “% Activation” value at CFTR G551D mutant was determined as 26.1%; on CFTR ΔF508 mutant it was 100.8%. The EC50 at CFTR G551D mutant is > 10000 nM; at CFTR ΔF508 mutant it was 18.9 nM.

As to `CC1CCN(S(=O)(=O)c2cnc(C(=O)NCC(O)C(F)(F)F)c(N)c2)CC1` (stereo not shown) [Compound 184, 3-amino-5-[(4-methylpiperidin-1-yl)sulfonyl]-N-(3,3,3-trifluoro-2-hydroxypropyl)pyridine-2-carboxamide], on CFTR G551D mutant, the “% Activation” value worked out at 66.4% and the EC50 stood at 392 nM. For the same compound, on CFTR ΔF508 mutant, the “% Activation” value is listed as 111.0% and the EC50 is 6.9 nM.

Regarding `Nc1cc(S(=O)(=O)c2ccc(OC(F)(F)F)cc2)cnc1C(=O)N1CC2(COC2)C1` [Compound 68, (3-amino-5-{[4-(trifluoromethoxy)phenyl]sulfonyl}pyridin-2-yl)(2-oxa-6-azaspiro[3.3]hept-6-yl)methanone], on CFTR G551D mutant, the “% Activation” value was found to be 54.0% and the EC50 was found to be 1820 nM. Further, on CFTR ΔF508 mutant, the “% Activation” value is listed as 92.0% and the EC50 came out at 130 nM.

As to `Nc1cc(S(=O)(=O)c2ccc(OC(F)(F)F)cc2)cnc1C(=O)NC1CC(F)(F)C1` [Compound 122, 3-amino-N-(3,3-difluorocyclobutyl)-5-{[4-(trifluoromethoxy)phenyl]sulfonyl}pyridine-2-carboxamide], the “% Activation” value is 50.9% on CFTR G551D mutant and 83.2% at CFTR ΔF508 mutant. Further, the values for the EC50 on CFTR G551D mutant and on CFTR ΔF508 mutant were 425 nM and 35.3 nM, respectively.

Consider `Nc1cc(S(=O)(=O)c2ccc(OC(F)(F)F)cc2)cnc1C(=O)NCC1CC1` [Compound 155, 3-amino-N-(cyclopropylmethyl)-5-{[4-(trifluoromethoxy)phenyl]sulfonyl}pyridine-2-carboxamide], for which, at CFTR G551D mutant, the “% Activation” value is reported as 80.2% and the EC50 amounted to 987 nM. In addition, on CFTR ΔF508 mutant, the “% Activation” value turned out to be 108.0% and the response was half-maximal at 81.2 nM (EC50).

Turning to `Nc1cc(S(=O)(=O)c2ccc(OC(F)(F)F)cc2)cnc1C(=O)NCC1(CO)CCC1` [Compound 23, 3-amino-N-{[1-(hydroxymethyl)cyclobutyl]methyl}-5-{[4-(trifluoromethoxy)phenyl]sulfonyl}pyridine-2-carboxamide], at CFTR G551D mutant, the “% Activation” value was 57.4% and the midpoint of the response, the EC50, lay at 2150 nM. Further, at CFTR ΔF508 mutant, the “% Activation” value is listed as 103.9% and the response was half-maximal at 78.2 nM (EC50).

With `COCCNC(=O)c1ncc(S(=O)(=O)c2ccc(C(F)(F)F)cc2)cc1N` [Compound 202, 3-amino-N-(2-methoxyethyl)-5-{[4-(trifluoromethyl)phenyl]sulfonyl}pyridine-2-carboxamide], at CFTR G551D mutant, the “% Activation” value is given as 45.1% and the half-maximal effective concentration (EC50) was determined as 1600 nM. For the same compound, at CFTR ΔF508 mutant, the “% Activation” value is 97.6% and the EC50 came out at 45.5 nM.

As for `Nc1cc(S(=O)(=O)c2ccc(OC(F)(F)F)cc2F)cnc1C(=O)N1CC(O)C1` [Compound 77, (3-amino-5-{[2-fluoro-4-(trifluoromethoxy)phenyl]sulfonyl}pyridin-2-yl) (3-hydroxyazetidin-1-yl)methanone], the “% Activation” value came to 41.0% on CFTR G551D mutant and 98.8% at CFTR ΔF508 mutant. Also, the values for the EC50 at CFTR G551D mutant and at CFTR ΔF508 mutant were > 3330 nM and 15.3 nM, respectively.

In the case of `CC(C)C1(O)CN(C(=O)c2ncc(S(=O)(=O)c3ccc(OC(F)(F)F)cc3F)cc2N)C1` [Compound 175, (3-amino-5-{[2-fluoro-4-(trifluoromethoxy)phenyl]sulfonyl}pyridin-2-yl)[3-hydroxy-3-(propan-2-yl)azetidin-1-yl]methanone], the “% Activation” value on CFTR G551D mutant stood at 44.0%; at CFTR ΔF508 mutant, 103.0%. The EC50 at CFTR G551D mutant was > 3330 nM; on CFTR ΔF508 mutant it was 6.3 nM.

`COCC1(C)CN(C(=O)c2ncc(S(=O)(=O)c3ccc(C(F)(F)F)cc3)cc2N)C1` [Compound 232, (3-amino-5-{[4-(trifluoromethyl)phenyl]sulfonyl}pyridin-2-yl)[3-(methoxymethyl)-3-methylazetidin-1-yl]methanone]: on CFTR G551D mutant, the “% Activation” value came out at 66.0% and the EC50 worked out at 1490 nM. Moreover, at CFTR ΔF508 mutant, the “% Activation” value is on record as 94.5% and the EC50 is 68.4 nM.

In the case of `COc1nc(C(=O)NC[C@H](C)O)c(N)cc1S(=O)(=O)c1ccc(OC(F)(F)F)cc1` [Compound 280, 3-amino-N-[(2S)-2-hydroxypropyl]-6-methoxy-5-{[4-(trifluoromethoxy)phenyl]sulfonyl}pyridine-2-carboxamide], the “% Activation” value at CFTR G551D mutant was 57.6%; on CFTR ΔF508 mutant, 111.0%. The EC50 on CFTR G551D mutant was 1160 nM; at CFTR ΔF508 mutant, 2.9 nM.

As for `Nc1cc(S(=O)(=O)N2CCOc3ccccc32)cnc1C(=O)NCC(O)C(F)(F)F` (stereo not shown) [Compound 109, 3-amino-5-(2,3-dihydro-4H-1,4-benzoxazin-4-ylsulfonyl)-N-(3,3,3-trifluoro-2-hydroxypropyl)pyridine-2-carboxamide], the “% Activation” value came out at 62.6% at CFTR G551D mutant and 104.0% on CFTR ΔF508 mutant. Moreover, the EC50 was 296 nM at CFTR G551D mutant and 3.6 nM at CFTR ΔF508 mutant.

With `Nc1cc(S(=O)(=O)N2CCOCC2)cnc1C(=O)NCC(O)C(F)(F)F` (stereo not shown) [Compound 139, 3-amino-5-(morpholin-4-ylsulfonyl)-N-(3,3,3-trifluoro-2-hydroxypropyl)pyridine-2-carboxamide], at CFTR G551D mutant, the “% Activation” value is 40.6% and the EC50 worked out at 5770 nM. At CFTR ΔF508 mutant, the “% Activation” value came out at 96.6% and it took 61.2 nM to reach a half-maximal effect (EC50).

As to `COCCCNC(=O)c1ncc(S(=O)(=O)c2ccc(C(F)(F)F)cc2)cc1N` [Compound 222, 3-amino-N-(3-methoxypropyl)-5-{[4-(trifluoromethyl)phenyl]sulfonyl}pyridine-2-carboxamide], at CFTR G551D mutant, the “% Activation” value was 48.4% and the EC50 worked out at 816 nM. Moreover, on CFTR ΔF508 mutant, the “% Activation” value is recorded as 108.7% and a half-maximal response (EC50) required 40.8 nM.

Regarding `Nc1cc(S(=O)(=O)c2ccc(C(F)(F)F)cc2)cnc1C(=O)N[C@@H]1COCC[C@@H]1O` (racemic) [Compound 216, rac-3-amino-N-[(3R,4S)-4-hydroxytetrahydro-2H-pyran-3-yl]-5-{[4-(trifluoromethyl)phenyl]sulfonyl}pyridine-2-carboxamide], on CFTR G551D mutant, the “% Activation” value came out at 47.8% and it took 1140 nM to reach a half-maximal effect (EC50). Further, at CFTR ΔF508 mutant, the “% Activation” value is listed as 98.6% and the EC50 was found to be 47.1 nM.

Take `Nc1cc(S(=O)(=O)c2cccc(OC(F)(F)F)c2)cnc1C(=O)NCC(O)C(F)(F)F` (stereo not shown) [Compound 236, 3-amino-N-(3,3,3-trifluoro-2-hydroxypropyl)-5-{[3-(trifluoromethoxy)phenyl]sulfonyl}pyridine-2-carboxamide]: at CFTR G551D mutant, the “% Activation” value amounted to 77.2% and the response was half-maximal at 364 nM (EC50). In addition, on CFTR ΔF508 mutant, the “% Activation” value stood at 115.5% and the EC50 is 3.6 nM.

For `COCCC(C)(O)CNC(=O)c1ncc(S(=O)(=O)c2ccc(C(F)(F)F)cc2F)cc1N` (stereo not shown) [Compound 163, 3-amino-5-{[2-fluoro-4-(trifluoromethyl)phenyl]sulfonyl}-N-(2-hydroxy-4-methoxy-2-methylbutyl)pyridine-2-carboxamide], at CFTR G551D mutant, the “% Activation” value is 71.9% and the EC50 was determined as 2300 nM. Moreover, at CFTR ΔF508 mutant, the “% Activation” value is recorded as 97.0% and the EC50 turned out to be 22.6 nM.

With `Nc1cc(S(=O)(=O)c2ccc(OC(F)(F)F)cc2)cnc1C(=O)NCC1CC(F)(F)C1` [Compound 153, 3-amino-N-[(3,3-difluorocyclobutyl)methyl]-5-{[4-(trifluoromethoxy)phenyl]sulfonyl}pyridine-2-carboxamide], at CFTR G551D mutant, the “% Activation” value worked out at 47.6% and a half-maximal effect (EC50) was put at 760 nM. On CFTR ΔF508 mutant, the “% Activation” value stood at 105.0% and the EC50 was 75.4 nM.

On to `CC(C)(O)CNC(=O)c1ncc(S(=O)(=O)c2ccc(F)cc2)cc1N` [Compound 10, 3-amino-5-[(4-fluorophenyl)sulfonyl]-N-(2-hydroxy-2-methylpropyl)pyridine-2-carboxamide], for which the “% Activation” value at CFTR G551D mutant is reported as 52.2%; on CFTR ΔF508 mutant, 106.4%. Besides, the 50% effective concentration (EC50) on CFTR G551D mutant was > 3330 nM; at CFTR ΔF508 mutant it was 148 nM.

As to `COC1CN(C(=O)c2ncc(S(=O)(=O)c3ccc(OC(F)(F)F)cc3)cc2N)C1` [Compound 42, (3-amino-5-{[4-(trifluoromethoxy)phenyl]sulfonyl}pyridin-2-yl)(3-methoxyazetidin-1-yl)methanone], at CFTR G551D mutant, the “% Activation” value came out at 64.3% and the EC50 is > 3330 nM. At CFTR ΔF508 mutant, the “% Activation” value came out at 105.5% and the response was half-maximal at 37.1 nM (EC50).

These data come from patent US10047051B2, “Substituted pyridines and method of use” (AbbVie S.á{acute over (.)}r.l., priority 2015, dated 2018).
